These results are taken from patent publication US11945862B2, “Compositions and methods for antibody production” (ImmunoGen, Inc., priority 2017, dated 2024).

One data set has as its system humanized FOLR1 IgG1. The data set can be described thus: Antibody fragmentation in HCCF treated with 20% (v/v) microfluidized CHO cells, non-reducing SDS-Protein Lab Chip. It is filed as biochemical. Conditions: 1 mM of each additive, 6 h; control 78% fragmentation.
The test system of the next data set is humanized N901 antibody. The data set can be described thus: Antibody disulfide reduction by CHO cell lysate (RIPA buffer), thiol/antibody by Ellman's assay. It is filed as biochemical. Here is the method:
For all of the examples described below, cell damage was simulated by multiple freeze-thaw cycles of cells, by addition of RIPA buffer (50 mM Tris-HCl, pH 7.4, 1% NP-40, 0.5% sodium deoxycholate, 0.1% sodium dodecylsulfate), or by using microfluidizer. This damaged cell supernatant or lysate was then incubated with a buffered solution containing antibody with or without the anti-reduction agent being tested, following which the extent of the antibody-disulfide reduction was measured using Ellman's assay for thiol (P. W. Riddles, R. L. Blakeley, and B. Zerner, Methods Enzymol., 91, 49-60, 1983) or by non-reducing SDS protein LabChip analysis. The total thiol level present in the mixture of damaged cell supernatant/lysate was measured initially.
The effect of 1,2-naphthoquinone-4-sulfonic acid (NQS) on antibody-disulfide reduction was studied by incubating 1,2-naphthoquinone-4-sulfonic acid at several concentrations with antibody and damaged CHO lysate. The damaged CHO cell lysate was generated by the addition of 0.5 ml RIPA buffer (50 mM Tris-HCl, pH 7.4, 1% NP-40, 0.5% sodium deoxycholate, 0.1% sodium dodecylsulfate) to 100 million CHO cells. The thiol concentration in CHO cell lysate was measured by Ellman's assay as 2.1 mM.
Each sample contained pre-mixed 0.5 ml RIPA buffer (50 mM Tris-HCl, pH 7.4, 1% NP-40, 0.5% sodium deoxycholate, 0.1% sodium dodecylsulfate) with 1 mg humanized N901 antibody, with or without 1,2-naphthoquinone-4-sulfonic acid (25 micromolar, or 50 micromolar, or 100 micromolar), which was added to a cell pellet of 100 million CHO cells, and the resuspended cells were incubated at ambient temperature for 30 minutes, following which the cell debris were pelleted by centrifugation (16,000 g, 5 min). The supernatant from each sample was added to 50 microliter immobilized-Protein A beads (RepliGen) and rotated at ambient temperature for 3 hours, after which the supernatant was removed and the beads washed with PBS.
The thiol content of the immobilized antibody was determined by the addition of 0.6 ml of PBS containing 0.5 mM DTNB (Ellman's reagent) to the beads, rotation for about 10 minutes, centrifugation, and absorbance measurement of supernatant at 412 nm.
The effect of anthraquinone-2-sulfonic acid (AQS) on antibody-disulfide reduction was studied during co-incubation of anthraquinone-2-sulfonic acid with antibody and damaged CHO lysate. Each sample contained pre-mixed 1 ml RIPA buffer (50 mM Tris-HCl, pH 7.4, 1% NP-40, 0.5% sodium deoxycholate, 0.1% sodium dodecylsulfate) with 1 mg humanized N901 antibody, with or without 0.2 mM anthraquinone-2-sulfonic acid (AQS), which was added to a cell pellet of 100 million CHO cells, and the resuspended cells were incubated at ambient temperature for 30 minutes, following which the cell debris were pelleted by centrifugation (16,000 g, 5 min). The thiol concentration in CHO cell lysate was 1 mM (Ellman's assay).
The supernatant from each sample was added to 50 microliter immobilized-Protein A beads (RepliGen) and rotated at ambient temperature for 3 hours, after which the supernatant was removed and the beads washed with PBS. The thiol content of the immobilized antibody was determined by the addition of 0.6 ml of PBS containing 0.5 mM DTNB (Ellman's reagent) to the beads, rotation for about 10 minutes, centrifugation, and absorbance measurement of supernatant at 412 nm.
In another experiment, 1 mg huN901 antibody was incubated with CHO lysate, with or without 0.4 mM anthraquinone-2-sulfonic acid for 4 hours. The mixture was then analyzed for thiol/antibody as above.
The thiol concentration in CHO cell lysate was 1 mM (Ellman's assay).
The supernatant from each sample was added to 50 microliter immobilized-Protein A beads (RepliGen) and rotated at ambient temperature for 3 hours, after which the supernatant was removed and the beads washed with PBS. […]
In general terms: Ellman's reagent forms a yellow product with free thiols.

The subject of another data set is CHO cells. The data set can be described thus: Viability of CHO cells after 1 day treatment. Conditions: 0.75 mM, control 98.9%.
The test system of data set [1] is Humanized FOLR1 IgG1 antibody. The data set can be described thus: Antibody disulfide reduction by CHO cell lysate (RIPA buffer), thiol per antibody by Ellman's assay. It is filed as biochemical. As to conditions: 2 mM agent.
Protocol: Lysates of CHO cells (˜60 million cells lysed in 0.6 ml RIPA buffer and clarified by centrifugation) were added to each of these mixtures. The pH values of all samples were adjusted to 7. […] The samples were incubated with 200 microliter immobilized-Protein A beads (RepliGen) and rotated at ambient temperature for 3 hours, after which the supernatant was removed and the beads washed with PBS. The thiol content of the immobilized antibody was determined by the addition of 0.2 ml of PBS containing 0.5 mM DTNB (Ellman's reagent) to the beads, rotation for about 10 minutes, centrifugation, and absorbance measurement of the supernatant at 412 nm.
The pH values of all samples were adjusted to 7. The samples were incubated with 200 microliter immobilized-Protein A beads (RepliGen) and rotated at ambient temperature for 3 hours, after which the supernatant was removed and the beads washed with PBS. The thiol content of the immobilized antibody was determined by the addition of 0.2 ml of PBS containing 0.5 mM DTNB (Ellman's reagent) to the beads, rotation for about 10 minutes, centrifugation, and absorbance measurement of the supernatant at 412 nm.
To test the effect of L-cystine bis(t-butyl ester) (CDBE) on protecting antibody disulfide bonds from reduction by CHO lysate, humanized FOLR1 IgG1 antibody (2 mg) was incubated with CHO lysate in RIPA buffer (0.6 ml lysate of 60 million CHO cells in 0.6 ml RIPA buffer, clarified by centrifugation) without or with 0.5 or 1 mM CDBE. The samples were rotated at ambient temperature with 200 microliter immobilized-Protein A beads (RepliGen) for 2 hours, after which the supernatant was removed and the beads washed with PBS. The thiol content of the immobilized antibody was determined by the addition of 0.2 ml of PBS containing 0.5 mM DTNB (Ellman's reagent) to the beads, centrifugation, and absorbance measurement of the supernatant at 412 nm.
The samples were rotated at ambient temperature with 200 microliter immobilized-Protein A beads (RepliGen) for 2 hours, after which the supernatant was removed and the beads washed with PBS. The thiol content of the immobilized antibody was determined by the addition of 0.2 ml of PBS containing 0.5 mM DTNB (Ellman's reagent) to the beads, centrifugation, and absorbance measurement of the supernatant at 412 nm.
For a further data set, the system named is humanized IgG4. The data set can be described thus: IgG4 disulfide reduction by CHO cell lysate, DTNB thiol assay. As to conditions: 1 mM agent, 30% v/v CHO cell lysate, 4 hours, pH 7; control 7.7. The format is biochemical. As to the method: All samples were adjusted to pH 7 and incubated with 200 μl protein A beads for 4 hours while rotating at room temperature. After the incubation the supernatant was removed and beads washed three times with 10 ml PBS. To analyze the thiol content of the protein A-bound IgG4 antibody, the beads were incubated with a 0.5 mM DTNB solution for 5 min and the absorbance of the supernatant measured at 412 nm.

The nature of data set [2]: Redox potential of antibody solution with media additive over a range of DTT concentrations. It is filed as physicochemical. Conditions: 1 mM additive, DTT 0.34 μM to 170 μM, 37° C., 1 h.
Data set [3] has as its system recombinant humanized IgG1 antibody. The data set can be described thus: Antibody fragmentation in thawed HCCF under nitrogen or air with CDME, non-reducing SDS-Protein Lab Chip. The format is biochemical. As to the method:
A CHO cell culture producing recombinant humanized IgG1 antibody was subjected to centrifugation and the resulting harvest cell culture fluid (HCCF) was frozen at −80° C. […] At various time points, samples were quenched with N-ethylmaleimide (NEM), purified using immobilized Protein A, and analyzed for fragments using non-reducing SDS-Protein Lab Chip electrophoresis. […] In contrast, the sample overlayed with air became less fragmented with time, reaching a plateau of about 25% fragmentation at 20 hours.

For data set [4], the system named is M9346A antibody. The format is biochemical. As to conditions: 1 mM additive, 100 μM DTT, 37° C., 1 h; control 80%.
The subject of another data set is Humanized IgG2 antibody. The data set can be described thus: IgG2 disulfide reduction by CHO cell lysate, DTNB thiol assay. It is filed as biochemical. Conditions: 1 mM agent, 40% v/v CHO cell lysate, 5 hours, pH 7; control 0.84. As to the method:
Humanized IgG2 antibody (1 mg/ml; final concentration) was incubated with 40% v/v CHO cell lysate (˜40 million cells lysed with 0.4 ml RIPA buffer and debris removed by centrifugation) in a total volume of 1 ml. The control sample was adjusted to pH 7 and rotated at RT for 5 hours with 100 μl protein A beads. […] After the incubation time of 5 hours, the supernatant was removed and the beads were washed three times with 10 ml PBS before the thiol amount of the immobilized antibody was analyzed by adding 0.5 mM DTNB and measuring the absorbance at 412 nm.

The test system of data set [5] is M9346A antibody. The format is biochemical. As to conditions: 1 mM additive, conditions where control without additive was 100% fragmented. Here is the method: Antibody reduction was induced in a biological assay by adding cell lysate to purified monoclonal antibody. […]. Increasing amounts of CHO cell lysate were added to mimic different percentages of cell lysis, ranging from […]. Fresh NADPH was added to a concentration of 400 μM. The mixtures were incubated in a water bath at 37° C. for 1 h. Free thiols were alkylated by addition of 10% (v/v) of 50 mM N-ethyl-maleimide (NEM) solution. Samples were analyzed by non-reduced sodium dodecyl sulfate denaturing capillary electrophoresis (NR-CE-SDS).
To test the capacity for protection further, the stringency of the assay was increased. […].

Some results are limits rather than exact numbers.

Regarding `COC(=O)[C@@H](N)CSSC[C@H](N)C(=O)OC` [CDME, L-cystine dimethyl ester], in the data set on humanized FOLR1 IgG1, the “fragmentation compared with no additive control” value is “much lower fragmentations”. In addition, the thiol/antibody in the data set with humanized N901 antibody (0.05 mM agent, 3 hours, lysate thiol 1 mM, control 5.20) is reported as 2.75 thiol/antibody; in the data set with humanized N901 antibody (0.1 mM agent, 3 hours, lysate thiol 1 mM, control 5.20) it was 1.85 thiol/antibody; in the data set on humanized N901 antibody (0.2 mM agent, 3 hours, lysate thiol 1 mM, control 5.20), 1.56 thiol/antibody; with humanized N901 antibody (0.4 mM agent alone, 4 hours, control 4.34), 1.37 thiol/antibody; with humanized N901 antibody (0.5 mM agent, 3 hours, lysate thiol 1 mM, control 5.20) it was 1.19 thiol/antibody; in the data set on humanized N901 antibody (0.75 mM agent, 4° C. overnight, control 2.29), 0.96 thiol/antibody. The “viability of CHO cells” value in the data set on CHO cells turned out to be 98.9%. Further, the “decrease in disulfide reduction compared to the control” value in data set [1] (100 mM phosphate buffer pH 7, 2 hours) is roughly 89%. The thiol per antibody in [1] (100 mM phosphate buffer pH 7, 2 hours, control 1.16) is recorded as roughly 0.13 thiol per antibody; in data set [1] (3 hours, pH 7, lysate of ~40 million cells, control 0.95), “about 0.02 thiol per antibody”; in data set [1] (3 hours, pH 7, lysate of ~60 million cells, control 1.96), “about 0.25 thiol per antibody”. The “thiol groups per antibody” value in the data set on humanized IgG4 was 0.004 thiol groups per antibody. Moreover, the “modulation of redox potential” value in [2] is on record as “constant redox potential across all DTT concentrations”. Besides, the “time the antibody was protected from reduction” value in data set [3] (1 mM CDME with nitrogen) was “up to 20 hours”; in data set [3] (2 mM CDME with nitrogen), no more than 45 h. Besides, the “expected protection against antibody disulfide bond reduction” value in [3] (combination of oxygen sparging with CDME) is on record as “highly effective”. In addition, the “fragmentation with air overlay plus agent versus air overlay alone” value in data set [3] (~1 mM CDME with air overlay, up to 72 hours) was “lowered the fragmentation further throughout the course of the study”. Further, the intact antibody in the data set on M9346A antibody [4] was 100%. Moreover, the “reduced thiols per antibody” value with Humanized IgG2 antibody is “near-zero reduction”. Also, in the data set on M9346A antibody [5], the “protection at increased assay stringency” value was “protective of disulfide reduction”.
